Measured values taken from US12364670B2, “Cannabidiol-type cannabinoid compound” (JAZZ PHARMACEUTICALS RESEARCH UK LIMITED, priority 2019, dated 2025).

Legend:
[1] = tested on: electroshock-induced generalised seizure threshold (MEST) in the mouse; assay: Maximal electroshock seizure threshold (MEST) test in the mouse, Example 3; conditions: for CC50 ± SEM: vehicle CC50 24.3
Procedure: The efficacy of CBD-C6 was tested in a mouse model of generalised seizure, the maximal electroshock seizure threshold (MEST) test as described in Example 2.
Naïve mice were acclimatised to the procedure room in their home cages for up to 7 days, with food and water available ad libitum.
All animals were weighed at the beginning of the study and randomly assigned to treatment groups based on a mean distribution of body weight across groups.
The first animal within a treatment group was given a shock at the expected or estimated CC50 current. For subsequent animals, the current was lowered or raised depending on the convulsions outcome from the preceding animal.
Data generated from each treatment group were used to calculate the CC50±SEM values for the treatment group.
Vehicle: (5% ethanol, 5% solutol, 90% Saline) was prepared as follows: 1 mL of ethanol, 1 mL of solutol were warmed to 60° C., in 18 mL of saline (1:1:18).
The test compound, CBD-C6 was prepared according to the method described in Example 1. CBD-C6 was administered at 10, 30 and 100 mg/kg (i.p.) in a 1:1:18 ethanol:solutol:0.9% saline formulation.
CBD-C6 effects were also calculated as percentage change in CC50 from the vehicle control group. Significant difference between drug-treated animals and controls were assessed according to Litchfield and Wilcoxon (1949).

[2] = tested on: electroshock-induced tonic hind limb extensor seizure (MEST) in the mouse; assay: Maximal electroshock seizure threshold (MEST) test in the mouse, Example 2; conditions: for CC50 +/- SEM: vehicle CC50 21.0
Procedure: The efficacy of CBD-C6 was tested in a mouse model of seizure, the maximal electroshock seizure threshold (MEST) test.
The maximal electroshock seizure threshold (MEST) test is widely utilized preclinically to evaluate pro- and anti-convulsant properties of molecules (Loscher et al., 1991).
In the MEST test the ability of a drug to alter the seizure threshold current required to induce hind limb tonic extensor convulsions is measured according to an “up and down” method of shock titration (Kimball et al., 1957). An increase in seizure threshold is indicative of anti-convulsant effect.
Naïve mice were acclimatised to the procedure room in their home cages, with food and water available ad libitum.
Animals were dosed i.p. according to dose group.
The vehicle (10 ml/kg i.p. 60 min pre-treatment time) was 1:1:18 vehicle 5% ethanol, 5% kolliphor EL, 90% saline.
The test compound, CBD-C6 was administered at doses of 10, 30 and 100 mg/kg given at 10 ml/kg i.p. 180 min pre-treatment time.
Mice were individually assessed for the production of a tonic hind limb extensor seizure using a Hugo Sachs Electronik stimulator, which delivered an adjustable constant current (1-300 mA) of 0.1 s duration via corneal electrodes.
The stimulus intensity was varied by an ‘up and down’ method of shock titration.
This procedure continued for all mice within the treatment group. Data generated from treatment group of n=12 was used to calculate the CC50±s.e.m. values according to the method of Kimball et al. (1957).
Induction of seizure is measured as an all-or-nothing effect scored as either present (+) or absent (0) for each animal.
Data was analysed by comparing treated groups with the appropriate vehicle control using Fisher's Exact Probability tests.

[3] = 10 mg/kg i.p., 60 min pre-treatment
[4] = 30 mg/kg i.p., 60 min pre-treatment
[5] = 100 mg/kg i.p., 120 min pre-treatment
[6] = 10 mg/kg i.p., 180 min pre-treatment
[7] = 30 mg/kg i.p., 180 min pre-treatment
[8] = 100 mg/kg i.p., 180 min pre-treatment
[9] = 2.5 mg/kg i.p., 30 min pre-treatment

## C=C(C)[C@@H]1CCC(C)=C[C@H]1c1c(O)cc(CCCCCC)cc1O [CBD-C6, Cannabidiol-C6]
[1]; [3]
  % change from vehicle (CC50): 27%
  CC50 ± SEM: 30.8 ± 1.9 mA
[1]; [4]
  % change from vehicle (CC50): 29%
  CC50 ± SEM: 31.5 ± 1.0 mA
[1]; [5]
  % change from vehicle (CC50): 239%
  CC50 ± SEM: 82.5 ± 0.7 mA
[1]; 10, 30 and 100 mg/kg i.p., compared to vehicle
  effect on MEST (in words): dose-related increase in MEST
[2]; [6]
  % change from vehicle (CC50): 11%
  CC50 +/- SEM: 23.4 mA
[2]; [7]
  % change from vehicle (CC50): 63%
  CC50 +/- SEM: 34.3 mA
[2]; [8]
  % change from vehicle (CC50): 376%
  CC50 +/- SEM: >100 mA

## CCCC(CCC)C(=O)[O-].[Na+] [Sodium Valproate, sodium valproate, reference compound]
[1]; 250 mg/kg i.p., 30 min pre-treatment
  % change from vehicle (CC50): 1057%

## CN1C(=O)CN=C(c2ccccc2)c2cc(Cl)ccc21 [Diazepam, diazepam, reference compound]
[1]; [9]
  % change from vehicle (CC50): 255%
[2]; [9]
  % change from vehicle (CC50): 40%
